Measured values reported in patent US6426369B1, “Oxethazaine as antimicrobial agent” (Eisai Co., Ltd., priority 1997, dated 2002).

How the values were obtained:
H. pylori [1] = test: Antimicrobial activity test 6: oxethazaine in combination with an antibiotic (AMPC, CAM, RXM), checker board method; type: cell-based, Helicobacter pylori; parameters: key to growth of H. pylori: “−” indicates the inhibited growth of H. pylori (presence of antimicrobial activity); “+” indicates the growth of H. pylori (absence of antimicrobial activity); conditions: for combined effect of oxethazaine and CAM / combined effect of oxethazaine and RXM: checker board; for effect of combined use: oxethazaine in combination with AMPC
Description: The effect of combined use with amoxicillin (AMPC), clarithromycin (CAM) or roxithromycin (RXM) was examined in the same manner as in antimicrobial activity test 1, using the checker board method.

[2] = Acute toxicity test, single oral dose, mice; conditions: Slc:ICR, mouse, in vivo, read-out: LD50 (Oral administration)
Procedure: (§1) A toxicity test was conducted by orally administering a single dose into 7- to 8-weeks old Slc:SD rats and Slc:ICR mice, each group consisting of 5 females and 5 males (medium; physiological saline).

H. pylori [3] = test: Antimicrobial activity test 3: oxethazaine in combination with compound (II), checker board method; type: cell-based; conditions: Helicobacter pylori
Description: In each Table, the concentration of oxethazaine is shown vertically, and the concentration of compound (II) is shown horizontally. In each Table, “−” indicates the inhibited growth of H. pylori (presence of antimicrobial activity), and “+” indicates the growth of H. pylori (absence of antimicrobial activity). […] It is assumed to be present when the MIC of either oxethazaine or PPI is reduced by ½ (when anti-H. pylori activity is not recognized when the concentrations of both oxethazaine and PPI are reduced to ¼, but anti-H. pylori activity is recognized when the concentration of one compound is reduced to ¼ and simultaneously the concentration of the other compound is reduced to ½.).

H. pylori [4] = test: Antimicrobial activity test 5: oxethazaine in combination with compound (IV) (lansoprazole), checker board method; type: cell-based, Helicobacter pylori
Description: The effect of oxethazaine used in combination with compound (IV) (lansoprazole) was examined in the same manner as in antimicrobial activity test 1, using the checker board method.
Hereinafter, the results are shown for each strain in the same manner as in antimicrobial activity test 3.

[5] = Acute toxicity test, single oral dose, rats; type: in vivo, Slc:SD rats; conditions: for LD50: Slc:SD, rat, in vivo, po, single oral dose, read-out: LD50 (Oral administration)
Procedure: as §1

SMILES: CN(C(=O)CN(CCO)CC(=O)N(C)C(C)(C)Cc1ccccc1)C(C)(C)Cc1ccccc1 [Oxethazaine, 2,2′-[(2-hydroxyethyl)amino]bis[N-(1,1-dimethyl-2-phenylethyl)-N-methylacetamide]]
- growth of H. pylori (H. pylori [1]; strain 90-397, CAM 25 μg/ml, oxethazaine μg/ml: 100, 50, 25, 12.5, 6.25, 3.13, 0): −
- growth of H. pylori (H. pylori [1]; strain 90-397, CAM 50 μg/ml, oxethazaine μg/ml: 100, 50, 25, 12.5, 6.25, 3.13, 0): −
- growth of H. pylori (H. pylori [1]; strain 90-397, CAM 100 μg/ml, oxethazaine μg/ml: 100, 50, 25, 12.5, 6.25, 3.13, 0): −
- combined effect of oxethazaine and CAM (H. pylori [1]; strain 90-397): 90-397 (synergism)
- growth of H. pylori (H. pylori [1]; strain 90-407, CAM 0 μg/ml (oxethazaine alone), oxethazaine μg/ml by row r14-r19: 100, 50, 25, 12.5, 6.25, 3.13): −
- growth of H. pylori (H. pylori [1]; strain 90-407, CAM 0.006 μg/ml, oxethazaine μg/ml: 100, 50, 25, 12.5, 6.25, 3.13, 0): −
- growth of H. pylori (H. pylori [1]; strain 90-407, CAM 0.012 μg/ml, oxethazaine μg/ml: 100, 50, 25, 12.5, 6.25, 3.13, 0): −
- growth of H. pylori (H. pylori [1]; strain 90-407, CAM 0.024 μg/ml, oxethazaine μg/ml: 100, 50, 25, 12.5, 6.25, 3.13, 0): −
- growth of H. pylori (H. pylori [1]; strain 90-407, CAM 0.05 μg/ml, oxethazaine μg/ml: 100, 50, 25, 12.5, 6.25, 3.13, 0): −
- growth of H. pylori (H. pylori [1]; strain 90-407, CAM 0.1 μg/ml, oxethazaine μg/ml: 100, 50, 25, 12.5, 6.25, 3.13, 0): −
- growth of H. pylori (H. pylori [1]; strain 90-407, CAM 0.2 μg/ml, oxethazaine μg/ml: 100, 50, 25, 12.5, 6.25, 3.13, 0): −
- growth of H. pylori (H. pylori [1]; strain 90-407, CAM 6.25 μg/ml, oxethazaine μg/ml: 100, 50, 25, 12.5, 6.25, 3.13, 0): −
- growth of H. pylori (H. pylori [1]; strain 90-407, CAM 12.5 μg/ml, oxethazaine μg/ml: 100, 50, 25, 12.5, 6.25, 3.13, 0): −
- growth of H. pylori (H. pylori [1]; strain 90-407, CAM 25 μg/ml, oxethazaine μg/ml: 100, 50, 25, 12.5, 6.25, 3.13, 0): −
- growth of H. pylori (H. pylori [1]; strain 90-407, CAM 50 μg/ml, oxethazaine μg/ml: 100, 50, 25, 12.5, 6.25, 3.13, 0): −
- growth of H. pylori (H. pylori [1]; strain 90-407, CAM 100 μg/ml, oxethazaine μg/ml: 100, 50, 25, 12.5, 6.25, 3.13, 0): −
- combined effect of oxethazaine and CAM (H. pylori [1]; strain 90-407): 90-407 (additive effect)
- growth of H. pylori (H. pylori [1]; strain 90-407, oxethazaine 3.13 μg/ml, AMPC 0): +
- growth of H. pylori (H. pylori [1]; strain 90-407, oxethazaine 6.25 μg/ml, AMPC 0): +
- growth of H. pylori (H. pylori [1]; strain 90-407, oxethazaine 12.5 μg/ml, AMPC 0): +
- growth of H. pylori (H. pylori [1]; strain 90-407, oxethazaine 25 μg/ml, AMPC 0): −
- growth of H. pylori (H. pylori [1]; strain 90-407, oxethazaine 50 μg/ml, AMPC 0): −
- growth of H. pylori (H. pylori [1]; strain 90-407, oxethazaine 100 μg/ml, AMPC 0): −
- growth of H. pylori (H. pylori [1]; strain 90-414, oxethazaine 3.13 μg/ml, AMPC 0): +
- growth of H. pylori (H. pylori [1]; strain 90-414, oxethazaine 6.25 μg/ml, AMPC 0): +
- growth of H. pylori (H. pylori [1]; strain 90-414, oxethazaine 12.5 μg/ml, AMPC 0): +
- growth of H. pylori (H. pylori [1]; strain 90-414, oxethazaine 25 μg/ml, AMPC 0): −
- growth of H. pylori (H. pylori [1]; strain 90-414, oxethazaine 50 μg/ml, AMPC 0): −
- growth of H. pylori (H. pylori [1]; strain 90-414, oxethazaine 100 μg/ml, AMPC 0): −
- combined effect of oxethazaine and CAM (H. pylori [1]; strain 90-428): 90-428 (synergism)
- combined effect of oxethazaine and RXM (H. pylori [1]; strain EH 12): EH 12 (additive effect)
- combined effect of oxethazaine and RXM (H. pylori [1]; strain EH 13): EH 13 (additive effect)
- combined effect of oxethazaine and RXM (H. pylori [1]; strain NCTC11637): NCTC11637 (additive effect)
- growth of H. pylori (H. pylori [1]; strain NCTC11637, oxethazaine 3.13 μg/ml, CAM 0): +
- growth of H. pylori (H. pylori [1]; strain NCTC11637, oxethazaine 6.25 μg/ml, CAM 0): +
- growth of H. pylori (H. pylori [1]; strain NCTC11637, oxethazaine 12.5 μg/ml, CAM 0): −
- growth of H. pylori (H. pylori [1]; strain NCTC11637, oxethazaine 25 μg/ml, CAM 0): −
- growth of H. pylori (H. pylori [1]; strain NCTC11637, oxethazaine 50 μg/ml, CAM 0): −
- growth of H. pylori (H. pylori [1]; strain NCTC11637, oxethazaine 100 μg/ml, CAM 0): −
- combined effect of oxethazaine and RXM (H. pylori [1]; strain NCTC11639): NCTC11639 (additive effect)
- growth of H. pylori (H. pylori [1]; strain NCTC11639, oxethazaine 3.13 μg/ml, CAM 0): +
- growth of H. pylori (H. pylori [1]; strain NCTC11639, oxethazaine 6.25 μg/ml, CAM 0): +
- growth of H. pylori (H. pylori [1]; strain NCTC11639, oxethazaine 12.5 μg/ml, CAM 0): +
- growth of H. pylori (H. pylori [1]; strain NCTC11639, oxethazaine 25 μg/ml, CAM 0): −
- growth of H. pylori (H. pylori [1]; strain NCTC11639, oxethazaine 50 μg/ml, CAM 0): −
- growth of H. pylori (H. pylori [1]; strain NCTC11639, oxethazaine 100 μg/ml, CAM 0): −
- effect of combined use (H. pylori [1]; the 34th table, strain NCTC11637): NCTC11637 (additive effect)
- effect of combined use (H. pylori [1]; the 34th table, strain NCTC11639): NCTC11639 (additive effect)
- effect of combined use (H. pylori [1]; the 35th table, strain NCTC11637): NCTC11637 (additive effect)
- effect of combined use (H. pylori [1]; the 35th table, strain NCTC11639): NCTC11639 (additive effect)
- effect of combined use (H. pylori [1]; the 36th table, strain EH 13): EH 13 (additive effect)
- effect of combined use (H. pylori [1]; the 36th table, strain EH 16): EH 16 (additive effect)
- effect of combined use (H. pylori [1]; the 37th table, strain EH 13): EH 13 (additive effect)
- effect of combined use (H. pylori [1]; the 37th table, strain EH 16): EH 16 (additive effect)
- LD50 ([2]; female, Mouse ♀): ≥ 1000 mg/kg
- LD50 ([2]; male, Mouse ♂): 1230 mg/kg
- MIC (H. pylori [3]; NCTC11637, NCTC 11637): 25 µg/mL
- MIC (H. pylori [3]; NCTC11639, NCTC 11639): 50 µg/mL
- effect of combined use (H. pylori [4]; strain 90-392): 90-392 (additive effect)
- effect of combined use (H. pylori [4]; strain 90-397): 90-397 (synergism)
- effect of combined use (H. pylori [4]; strain 90-414): 90-414 (synergism)
- effect of combined use (H. pylori [4]; strain 90-414(1)): 90-414(1) (synergism)
- LD50 ([5]; female, Rat ♀): 1070 mg/kg
- LD50 ([5]; male, Rat ♂): ≥ 1000 mg/kg
- LD50 values relative to clinical doses ([5]; oral, rats and mice, clinical doses 15 to 40 mg/day): about 5000 times
